Data reported in patent US12630536B2, “Cyanotriazine derivative, preparation method therefor, and application thereof” (Chengdu Fanxi Biopharma Co., LTD., priority 2020, dated 2026).

Assays:
[1] = system: TR beta-UAS-bla HEK 293T Cells; experiment: TR cell-based agonist detection, β-lactamase reporter (LiveBLAzer FRET B/G), TR beta
Description: (§1) A method for testing a THR-α/β activation activity of a compound by an in-vitro cell level was as follows.
(§2) Compounds were transferred to a 384-well plate by an ECHO liquid workstation, and each compound was diluted by 3 times with 10 gradient concentrations, which was in triplicate. 1.5×10^4 DMEM-cultured cells (TR beta-UAS-bla HEK 293T Cells) or 1.0×10^4 TR alpha-UAS-bla HEK 293T Cells were placed in the 384-well plate. HEK 293T-TR beta was incubated in an incubator for 16 hours, and HEK 293T-TR alpha was incubated in an incubator for 24 hours. A LiveBLAzer™-FRET B/G (CCF4-AM) substrate was added into the cell plate to detect expression of β-lactamase in cells, and under excitation of 409 nm, a product produced fluorescence with a wavelength of 447 nm. When the β-lactamase was not expressed, under excitation of 409 nm, fluorescence with a wavelength of 520 nm was directly produced through FRET. Combination between the compound and the protein was determined by detecting a ratio of the two kinds of fluorescence (blue/green, 460 nm/530 nm), thus calculating EC50 of the compound. […] Calculation of a factor Z (greater than 0.5) would be used for monitoring a stability of each experiment.

[2] = system: golden hamsters fed with high-fat feedstuffs (hyperlipidemia model); experiment: In-vivo pharmacodynamic test, high-fat feed hyperlipidemia model; details: oral once per day, 4 weeks
Description: Administration mode: oral administration was carried out once per day with a time interval of 24 hours for 4 consecutive weeks. During the experiment, the animals were weighed twice per week, and a remaining amount and an adding amount of the feedstuffs were recorded before each blood sampling detection for calculating a food intake of each group of animals during administration.
The food utilization rate represents a weight gain in gram of an animal taking per 100 g of feedstuffs, so that food utilization rate=weight gain (g)/food intake (100 g)×100%.

[3] = system: TR alpha-UAS-bla HEK 293T Cells; experiment: TR cell-based agonist detection, β-lactamase reporter (LiveBLAzer FRET B/G), TR alpha
Description: as §1, §2

In the case of `Cn1cnc2ccc(Oc3c(Br)cc(-n4nc(C#N)c(=O)[nH]c4=O)cc3Br)cc21` [Compound 1, 2-(3,5-dibromo-4-((1-methyl-1H-benzo[d]imidazol-6-yl)oxy)phenyl)-3,5-dioxo-2,3,4,5-tetra hydro-1,2,4-triazine-6-carbonitrile], the Emax ([1]; Homo sapiens, HEK-293T, 16 h, TR_cell-based agonist, TR_β, read-out: Maximum activity ratio (A460/A530)) is reported as 41.1%, the EC50 ([1]; Homo sapiens, Detection of TR_cell-based agonist, HEK 293T-TR beta, 16 hours, read-out: TR_β_EC50) is reported as 0.577 µM and the “Measurement of cpd/T3 (maximum ratio)” value ([1]; TR_cell-based agonist, TR_β, maximum relative to T3) is reported as 7.5%. The α/β ([1]; TR_cell-based agonist, ratio TR_α EC50 / TR_β EC50) was 7.49, the “food utilization rate (weight gain (g)/food intake (100 g)×100%)” value [2] was “reduced significantly” and the “level of triglyceride in blood (TG)” value ([2]; 5 and 15 mg/kg, compared with the model group) was “significantly reduces”. The Emax ([3]; Homo sapiens, HEK-293T, 24 h, TR_cell-based agonist, TR_α, read-out: Maximum activity ratio) was 205%, the EC50 ([3]; Homo sapiens, Detection of TR_cell-based agonist, HEK 293T-TR alpha, 24 hours, read-out: TR_α_EC50) was 4.32 µM and the “Test cpd/T3 (maximum ratio)” value ([3]; TR_cell-based agonist, TR_α, maximum relative to T3) was 93.2%.
